From paper PMC5508670, “Conformationally restricted calpain inhibitors” (Chemical Science, 2015)
Read-outs that look alike come from different tables or passages of the source.

How the values were obtained:
[1] = biological target: T1, calpain-I (Sus scrofa, UniProt P35750); assay: FRET-based calpain-I inhibition assay in the presence and absence of 10 mM DTT; format: biochemical, porcine
T1 construct: purchased CalBiochem
T1 sequence (P35750 1-714): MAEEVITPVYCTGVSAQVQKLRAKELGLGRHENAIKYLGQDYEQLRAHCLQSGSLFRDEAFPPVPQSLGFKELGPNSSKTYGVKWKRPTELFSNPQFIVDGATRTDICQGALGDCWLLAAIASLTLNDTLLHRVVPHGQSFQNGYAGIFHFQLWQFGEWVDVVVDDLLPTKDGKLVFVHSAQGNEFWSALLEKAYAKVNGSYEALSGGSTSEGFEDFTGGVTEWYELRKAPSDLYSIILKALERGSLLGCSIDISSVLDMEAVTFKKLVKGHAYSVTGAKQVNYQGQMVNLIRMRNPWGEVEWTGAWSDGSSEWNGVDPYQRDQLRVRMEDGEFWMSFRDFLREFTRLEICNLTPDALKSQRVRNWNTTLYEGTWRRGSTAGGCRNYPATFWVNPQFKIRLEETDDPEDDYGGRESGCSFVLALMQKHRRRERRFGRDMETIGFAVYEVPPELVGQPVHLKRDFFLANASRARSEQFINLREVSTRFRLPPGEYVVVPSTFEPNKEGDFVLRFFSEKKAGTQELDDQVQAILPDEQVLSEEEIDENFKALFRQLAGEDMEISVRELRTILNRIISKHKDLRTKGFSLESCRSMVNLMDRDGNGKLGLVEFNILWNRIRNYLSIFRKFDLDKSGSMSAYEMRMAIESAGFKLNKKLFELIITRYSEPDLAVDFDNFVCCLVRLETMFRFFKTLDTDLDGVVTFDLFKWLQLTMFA
T1 sequence (P04574 1-266): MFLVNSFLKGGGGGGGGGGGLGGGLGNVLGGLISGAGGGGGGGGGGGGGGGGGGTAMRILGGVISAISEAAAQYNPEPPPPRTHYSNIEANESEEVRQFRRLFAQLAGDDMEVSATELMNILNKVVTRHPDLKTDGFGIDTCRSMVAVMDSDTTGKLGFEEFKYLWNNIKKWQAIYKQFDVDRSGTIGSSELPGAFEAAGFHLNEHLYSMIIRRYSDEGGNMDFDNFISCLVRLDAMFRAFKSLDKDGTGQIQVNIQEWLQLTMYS
Experimental: The inhibitory properties of a series of oxidised and reduced α-mercaptoacrylic acid derivatives towards calpain-I (Fig. 4) were assessed in a FRET-based assay in the presence and absence of 10 mM dithiothreitol (DTT).[24],[25] To ensure complete oxidation, compounds were left in the assay solution for 3 hours prior to performing the assay (vide supra and ESI ^†). In the absence of inhibitors there was no observable difference in enzyme activity when assayed under both oxidising and reducing conditions.
Protein Expression, Crystallisation and FRET Based Inhibition Assay Methods […]
FRET based Inhibition Assay
This assay employed a peptide from the calpain-1 substrate α-spectrin, with fluorescein at one terminus internally quenched by DABCYL and the other (H2N-K(FAM)-EVYGMMK(DABCYL)-OH).11 Cleavage by calpain-1 occurs between the Tyr-Gly residues and results in enhanced fluorescence as the quenching effect is relieved. The assays were performed using purified porcine Calpain-1 (CalBiochem, 10 nM) and fluorogenic calpain-1 substrate (Merck, 1 µM) in an assay buffer consisting of HEPES (10 mM) pH 6.8; EDTA (0.5 mM); bovine serum albumin (0.1%). The assay was performed using a fluorescent plate reader (BMG Optistar) in an assay volume of 100 µl at a temperature of 37°C, using an excitation band pass filter centred at 485 nm and emission detected at 520 nm. The compounds to be tested for inhibition were added to the assay mixture before the reaction was initated by the addition of CaCl2 (5 mM).
None of the compounds had significant fluorescence at this wavelength and correction for this was unnecessary. The compounds were dissolved in DMSO at 50 mM and diluted into assay buffer to give range of concentrations from 5 nM to 50 µM. In each assay run, the effect of DMSO alone over the concentration used was also measured. Although there was no effect of DM SO at lower concentrations, in some assay runs, DM SO at 0.005%-0.5% produced some inhibitory effect. This DM SO effect (which was only relevant for compounds with poor inhibitory ability) was subtracted before constructing the inhibition curves.
FRET based inhibition assay (DTT addition)
The same procedure was used as described above except with assay buffer containing HEPES (10 mM) pH 6.8; EDTA (0.5 mM); bovine serum albumin (0.1%) and DTT (10 mM).

[2] = Oxidation of sulfhydryl to disulfide in solution (UV-VIS / 1H-NMR); format: physicochemical
Experimental: The rate of conversion of 3 to its disulfide form was dependent upon both the concentration of the compound and the nature of the solution. […] […] Compound 4 was then added to preformed crystals of PEF(S).

[3] = biological target: Calpain-I; parameters: method as in PMID 8692879; conditions: cited from earlier work
[4] = biological target: Calpain-II; parameters: method as in PMID 8692879; conditions: cited from earlier work
[5] = presence of 10 mM DTT (reduced sulfhydryl form), read-out: IC50, Sulfhydryl
[6] = absence of DTT (oxidised disulfide form), compounds left 3 hours in assay solution before the assay, read-out: IC50, Disulfide
[7] = thioethers, 10 mM DTT, read-out: IC50 (DTT)
[8] = thioethers, no DTT, read-out: IC50 (No DTT)
[9] = thioethers, DTT had no effect on the potency, read-out: IC50
[10] = absence of DTT (disulfide form), read-out: IC50 of oxidised compounds

Structure (SMILES): O=C(O)/C(S)=C/c1ccccc1Br [compound 9]
- IC50 [1, 5]: 50 µM

Structure (SMILES): O=C(O)/C(=C/c1ccc(Cl)cc1)SS/C(=C\c1ccc(Cl)cc1)C(=O)O [compound 21]
- IC50 [1, 6]: 0.01 µM

Structure (SMILES): O=C(O)/C(=C/c1ccc(F)cc1)SS/C(=C\c1ccc(F)cc1)C(=O)O [compound 19]
- IC50 [1, 6]: 0.05 µM

Structure (SMILES): O=C(O)/C(S)=C/c1ccc(F)cc1 [compound 18]
- IC50 [1, 5]: 50 µM

Structure (SMILES): O=C(O)/C(S)=C/c1c[nH]c2ccc(Br)cc12 [compound 26]
- IC50 [1, 5]: 0.5 µM

Structure (SMILES): O=C(O)/C(=C/c1cccc(Cl)c1)CS/C(=C\c1ccc(Cl)cc1)C(=O)O [compound 41, (Z)-3-(3-chlorophenyl)-2-((((Z)-2-(4-chlorophenyl)-1-carboxyvinyl)thio)methyl)acrylic acid]
- IC50 [1, 7]: > 100 µM
- IC50 [1, 8]: > 100 µM
- IC50 [1, 9]: > 100 µM

Structure (SMILES): O=C(O)/C(=C/c1c[nH]c2cc(Br)ccc12)SS/C(=C\c1c[nH]c2cc(Br)ccc12)C(=O)O [compound 4, (2Z,2′Z)-2,2′-disulfanediylbis(3-(6-bromoindol-3-yl)acrylic acid)]
- IC50 ([1]; disulfide prepared by iodine mediated oxidation and in situ prior to the assay, read-out: IC50 (dose response curve, Figure S8)): 0.2 µM

Structure (SMILES): O=C(O)/C(=C/c1ccc(I)cc1)SS/C(=C\c1ccc(I)cc1)C(=O)O [compound 23]
- IC50 [1, 10]: 0.0075 µM

Structure (SMILES): O=C(O)/C(S)=C/c1c[nH]c2ccc(Cl)cc12 [compound 24]
- IC50 [1, 5]: 1.5 µM

Structure (SMILES): O=C(O)/C(=C/c1cccc(Cl)c1)CS/C(=C\c1c[nH]c2ccc(Br)cc12)C(=O)O [compound 42, (Z)-3-(5-bromoindol-3-yl)-2-(((Z)-2-carboxy-3-(3-chlorophenyl)allyl)thio)acrylic acid]
- IC50 [1, 8]: 2 µM
- IC50 [1, 9]: 1.8 µM

Structure (SMILES): O=C(O)/C(S)=C/c1ccccc1F [compound 5]
- IC50 [1, 5]: 50 µM

Structure (SMILES): O=C(O)/C(=C/c1ccccc1Br)SS/C(=C\c1ccccc1Br)C(=O)O [compound 10]
- IC50 [1, 6]: 0.25 µM

Structure (SMILES): O=C(O)/C(=C/c1cccc(I)c1)SS/C(=C\c1cccc(I)c1)C(=O)O [compound 17]
- IC50 [1, 10]: 0.025 µM

Structure (SMILES): O=C(O)/C(S)=C/c1cccc(F)c1 [compound 11]
- IC50 [1, 5]: 50 µM

Structure (SMILES): O=C(O)/C(=C/c1ccc(Br)cc1)CS/C(=C\c1ccc(Br)cc1)C(=O)O [compound 40, (Z)-3-(4-Bromophenyl)-2-((((Z)-2-(4-bromophenyl)-1-carboxyvinyl)thio)methyl)acrylic acid]
- IC50 [1, 7]: 10 µM
- IC50 [1, 8]: 10 µM

Structure (SMILES): O=C(O)/C(=C/c1c[nH]c2ccc(Cl)cc12)SS/C(=C\c1c[nH]c2ccc(Cl)cc12)C(=O)O [compound 25]
- IC50 [1, 6]: 0.018 µM

Structure (SMILES): O=C(O)/C(S)=C/c1ccccc1Cl [compound 7]
- IC50 [1, 5]: 60 µM

Structure (SMILES): O=C(O)/C(=C/c1ccc(Br)cc1)CS/C(=C\c1c[nH]c2cc(Br)ccc12)C(=O)O [compound 43, (Z)-3-(6-bromoindol-3-yl)-2-(((Z)-3-(4-bromophenyl)-2-carboxyallyl)thio)acrylic acid]
- IC50 [1, 7]: 10 µM
- IC50 [1, 8]: 10 µM

Structure (SMILES): O=C(O)/C(=C/c1ccccc1F)SS/C(=C\c1ccccc1F)C(=O)O [compound 6]
- IC50 [1, 6]: 0.065 µM

Structure (SMILES): O=C(O)/C(=C/c1c[nH]c2c(Cl)cccc12)SS/C(=C\c1c[nH]c2c(Cl)cccc12)C(=O)O [compound 37]
- IC50 [1, 6]: 0.023 µM

Structure (SMILES): O=C(O)/C(=C/c1c[nH]c2cc(I)ccc12)SS/C(=C\c1c[nH]c2cc(I)ccc12)C(=O)O [compound 35]
- IC50 [1, 6]: 0.01 µM

Structure (SMILES): O=C(O)/C(S)=C/c1c[nH]c2ccc(I)cc12 [compound 28]
- IC50 [1, 5]: 0.5 µM

Structure (SMILES): O=C(O)/C(=C/c1c[nH]c2cc(Cl)ccc12)SS/C(=C\c1c[nH]c2cc(Cl)ccc12)C(=O)O [compound 31]
- IC50 [1, 6]: 0.028 µM

Structure (SMILES): O=C(O)/C(S)=C/c1c[nH]c2cc(I)ccc12 [compound 34]
- IC50 [1, 5]: 0.5 µM

Structure (SMILES): O=C(O)/C(S)=C/c1c[nH]c2cc(Br)ccc12 [compound 3, (Z)-3-(6-bromoindole-3-yl)-2-mercaptoacrylic acid]
- IC50 [1, 5]: 0.5 µM
- time to complete conversion to oxidised (disulfide) form ([2]; 100 μM in 100 mM KiPO4, pH 7.0, room temperature, UV-VIS): 3 h
- time after which oxidation was complete ([2]; 50 mM in DMSO, room temperature, 1H-NMR): 24 h

Structure (SMILES): O=C(O)/C(=C/c1c[nH]c2c(I)cccc12)SS/C(=C\c1c[nH]c2c(I)cccc12)C(=O)O [compound 39]
- IC50 [1, 6]: 0.02 µM

Structure (SMILES): O=C(O)/C(=C/c1c[nH]c2ccc(Br)cc12)SS/C(=C\c1c[nH]c2ccc(Br)cc12)C(=O)O [compound 27]
- IC50 [1, 6]: 0.01 µM

Structure (SMILES): O=C(O)/C(S)=C/c1c[nH]c2ccc(F)cc12 [PD151746]
- Ki [3]: 0.26 µM
- Ki [4]: 5.33 µM

Structure (SMILES): O=C(O)/C(S)=C/c1c[nH]c2cc(Cl)ccc12 [compound 30]
- IC50 [1, 5]: 1 µM

Structure (SMILES): O=C(O)/C(S)=C/c1cccc(I)c1 [compound 16]
- IC50 [1, 5]: 3 µM

Structure (SMILES): O=C(O)/C(=C/c1c[nH]c2ccc(I)cc12)SS/C(=C\c1c[nH]c2ccc(I)cc12)C(=O)O [compound 29]
- IC50 [1, 6]: 0.015 µM

Structure (SMILES): O=C(O)/C(S)=C/c1c[nH]c2c(I)cccc12 [compound 38]
- IC50 [1, 5]: 2 µM

Structure (SMILES): O=C(O)/C(S)=C/c1c[nH]c2c(Cl)cccc12 [compound 36]
- IC50 [1, 5]: 4 µM

Structure (SMILES): O=C(O)/C(S)=C/c1ccc(I)cc1 [PD150606]
- Ki [3]: 0.21 µM
- Ki [4]: 0.37 µM
